# Laboratory results from patent US20030092644A1, “Treatment of viral infections using levovirin” (priority 2002, published 2003).
# Where two headings read alike, the source gives them in different places.
# Key:
# Hepatitis B (HBV) = experiment: microbe, parasite or virus in culture; assay type: cell-based; conditions: read-out: Dir. Antiviral activity (EC50) HBV
# Parainfluenza (PARA) 3 = experiment: organism not typed; assay type: cell-based, Parainfluenza 3; conditions: read-out: Dir. Antiviral activity (EC50) PARA 3
# [1] = tested on: human immunodeficiency virus (HIV); experiment: microbe, parasite or virus in culture; assay type: cell-based; conditions: Human immunodeficiency virus 1, read-out: Dir. Antiviral activity (EC50) HIV
# rats = conditions: rat, in vivo, po, 180 mg/kg
# [2] = tested on: cells infected with Parainfluenza 3
# [3] = tested on: cells infected with Influenza A; experiment: Cytotoxicity in Influenza A assay; assay type: cell-based; conditions: read-out: Cytotoxicity (CC50) INFL. A
# Protocol: (§1) In vitro testing for direct antiviral activity of Levovirin™ and Ribavirin against influenza A and B, parainfluenza 1 and 2, and respiratory syncytial virus were performed as described in Huffman, J. H. et al. Antiviral Chem. and Chemother. 1997, 8: 75-83 and Barnard, D. L. et al. Antiviral Chem. and Chemother 1997, 8: 223-233. Anti-human immunodeficiency virus activity was assessed by the National Cancer Institute using a procedure designed to detect agents acting at any stage of the virus reproductive cycle [Weislow, O. W. et al., J. Natl. Cancer Inst. 1989, 81: 577-5861. Anti-hepatitis B (HBV) activity was monitored by using an assay as described by Marion et al., Hepatology 1987, 7: 724-731. Anti-HIV activity and cytotoxicity for Ribavirin was determined from previous data [McCormick, J. B., Lancet, 1998, II: 1367-1369.
# Parainfluenza (PARA) 1 = experiment: organism not typed; assay type: cell-based, Parainfluenza 1; conditions: read-out: Dir. Antiviral activity (EC50) PARA 1
# TNF-α = experiment: SEB-activated T cell cytokine ELISA, TNF-α; assay type: cell-based, human
# cells infected with HIV [4] = tested on: cells infected with HIV
# Influenza (INFL) A = experiment: microbe, parasite or virus in culture; assay type: cell-based; conditions: read-out: Dir. Antiviral activity (EC50) INFL. A
# IL-2 = experiment: SEB-activated T cell cytokine ELISA, IL-2; assay type: cell-based, human
# [5] = tested on: respiratory syncytial virus (RSV); experiment: microbe, parasite or virus in culture; assay type: cell-based; conditions: human respiratory syncytial virus, read-out: Dir. Antiviral activity (EC50) RSV
# [6] = tested on: cells infected with Parainfluenza 1
# IFN-γ = experiment: SEB-activated T cell cytokine ELISA, IFN-γ; assay type: cell-based, human
# [7] = tested on: cells infected with Influenza B; experiment: Cytotoxicity in Influenza B assay; assay type: cell-based; conditions: read-out: Cytotoxicity (CC50) INFL. B
# Protocol: as §1
# cells infected with HIV [8] = conditions: cited from earlier work
# [9] = tested on: human immunodeficiency virus (HIV); conditions: read-out: Dir. Antiviral activity (EC50) HIV; cited from earlier work
# [10] = tested on: Concanavalin A induced hepatitis; assay type: in vivo; conditions: BALB/c mice, single i.p. dose 20 μg (1 mg/kg) 1 hr before i.v. 0.3 mg Con A; serum after 24 hr; PBS control about 1900 U/ml
# [11] = Cytotoxicity in Influenza A assay; assay type: cell-based; conditions: cells infected with Influenza A; read-out: Cytotoxicity (CC50) INFL. A
# Protocol: as §1
# [12] = Cytotoxicity in Influenza B assay; assay type: cell-based; conditions: cells infected with Influenza B; read-out: Cytotoxicity (CC50) INFL. B
# Protocol: as §1
# Influenza (INFL) B = experiment: Direct antiviral activity, Influenza B; assay type: cell-based; conditions: Influenza B virus; read-out: Dir. Antiviral activity (EC50) INFL. B
# Protocol: as §1
# [13] = SEB stimulated T cells, 48 hrs, 0-10 μM compound, +/- standard deviation, 100% = no effect
compound,measurement,setting,value
"NC(=O)c1ncn([C@H]2O[C@@H](CO)[C@H](O)[C@@H]2O)n1 [Levovirin™, 1-(β-L-ribofuranosyl)-1,2,4-triazole-3-carboxamide]",EC50,Hepatitis B (HBV),> 100 µM
same,EC50,Parainfluenza (PARA) 3,> 1000 µM
same,EC50,[1],> 600 µM
same,"Clinical pathology (hemolytic anemia, leukopenia)",rats,did not produce any observable clinical pathology
same,CC50,[2],> 1000 µM
same,CC50,[3],> 200 µM
same,EC50,Parainfluenza (PARA) 1,> 1000 µM
same,"TNF-α, mean percentage of activated control",TNF-α,144 ± 7%
same,CC50,cells infected with HIV [4],> 600 µM
same,EC50,Influenza (INFL) A,> 200 µM
same,"IL-2, mean percentage of activated control",IL-2,131 ± 12%
same,EC50,[5],> 1000 µM
same,CC50,[6],> 1000 µM
same,"IFN-γ, mean percentage of activated control",IFN-γ,122 ± 3%
same,CC50,[7],> 200 µM
NC(=O)c1ncn([C@@H]2O[C@H](CO)[C@@H](O)[C@H]2O)n1 [Ribavirin],EC50,Hepatitis B (HBV),> 100 µM
same,CC50,cells infected with HIV [8],> 40 µM
same,EC50,Parainfluenza (PARA) 3,4 µM
same,EC50,[9],40 µM
same,"Clinical pathology (hemolytic anemia, leukopenia)",rats,produced significant hemolytic anemia and leukopenia
same,Con A induced serum ALT level,[10],969 U/ml
same,CC50,[11],56 µM
same,EC50,Parainfluenza (PARA) 1,40 µM
same,"TNF-α, mean percentage of activated control",TNF-α; [13],124 ± 4%
same,EC50,Influenza (INFL) A,6.1 µM
same,"IL-2, mean percentage of activated control",IL-2; [13],143 ±18%
same,EC50,[5],5 µM
same,"IFN-γ, mean percentage of activated control",IFN-γ; [13],131 ± 6%
same,CC50,[12],> 100 µM
same,EC50,Influenza (INFL) B,1.9 µM
